Measurements reported in patent US10052311B2, “PPAR compounds for use in the treatment of fibrotic diseases” (INVENTIVA, priority 2014, dated 2018).

Test system: anti-GBM exposed mice
Experiment: Anti-GBM induced glomerulonephritis in mice
Format: in vivo, mouse
Details: 10 mg/kg/day po 7 days, vs vehicle

Compound: C[C@H](CS)C(=O)N1CCC[C@H]1C(=O)O [captopril, reference compound]
- Col1a expression (kidney): had no effect on Col1a expression
- Col3a expression (kidney): had no effect on Col3a expression
- TGFβR-1 expression (kidney): had no effect on TGFβ-R1 expression
- kidney MCP-1 levels: significantly reduced MCP-1 levels
- kidney osteopontin levels: significantly reduced osteopontin levels
- serum urea levels: reduced urea level without reaching significance
- urinary albumin levels: reduced albumin levels without reaching significance
